{"source": "patent US20080213785A1", "about": "“Method of predicting a benefit of antioxidant therapy for prevention or treatment of vasclar disease in hyperglycemic individuals” (priority 2000, published 2008)", "key": {"[1]": {"details": "value for 1 mg; cited from earlier work"}, "[2]": {"experiment": "CVD outcomes and Vitamin C supplementation (data not shown)", "assay_type": "in vivo, human", "details": "unselected samples or Diabetic patients"}, "[3]": {"tested_on": "patients at high risk of cardiovascular events", "details": "HOPE study as published; daily 400 IU for 4.5 years; not stratified by haptoglobin; cited from earlier work"}, "[4]": {"tested_on": "patients at high risk of cardiovascular events", "experiment": "HOPE study: CV outcomes with vitamin E or ramipril by haptoglobin phenotype", "assay_type": "in vivo, human", "details": "for benefit of supplementation: unselected DM group", "text": "HOPE study and patient characteristics: The Heart Outcomes Prevention Evaluation (HOPE) study was designed to test the hypotheses that two preventive intervention strategies, namely angiotensin-converting enzyme (ACE) inhibition or vitamin E, would improve morbidity and mortality in patients at high risk of cardiovascular events compared with placebo. Patients were included in the study who were considered to be at high risk of future fatal or non-fatal cardiovascular events, by virtue of their age (>55 years), existing or previous cardiovascular disease, or diabetes. Diabetics had at least one other risk factor, either known vascular disease or other factors such as cigarette smoking, high cholesterol or hypertension. Ramipril or placebo was added to concomitant medication, which included, in a substantial proportion of patients, antihypertensive drugs (excluding ACE-I), lipid-lowering agents or aspirin. The HOPE study design and protocols have been previously described in detail (see, for example, The Heart Outcomes Prevention Evaluation Study Investigators NE J Med, 2000; 342:154-60 and […] Angioten Aldost Sys 2000; 1:18-20). Briefly, the study population consisted over 9,451 patients at high risk of CVD (3,654 DM). […] Patients were followed for a mean of 4.5 years. The primary study outcome was the composite of non-fatal MI, stroke or cardiovascular death. For samples from the HOPE Study, haptoglobin phenotyping was performed from 10 ul of plasma by polyacrylamide gel electrophoresis according to established methods (Hochberg I et al Atherosclerosis 2002; 161:441-446). A signature banding pattern is obtained from individuals who are homozygous for the 1 allele (Hp 1-1), homozygous for the 2 allele (Hp 2-2) or who are heterozygous at the haptoglobin locus (Hp 2-1). We have established 100% concordance between the haptoglobin phenotype as determined from plasma and the haptoglobin genotype as determined from genomic DNA by the polymerase chain reaction (Koch W, et al Clin Chem 2002; 277:13635-40). An unambiguous haptoglobin phenotype was obtained on greater than 99.6% of all samples assayed. Haptoglobin phenotyping was performed with no knowledge of the patients clinical or treatment status. All analyses of the HOPE Study data were carried out using SAS 6.02. Baseline characteristics of patients according to haptoglobin were compared by t tests or .chi^2 tests as appropriate. […] Patient characteristics of HOPE samples undergoing haptoglobin phenotyping: Haptoglobin phenotype was obtained on 3176 patients (1078 diabetics) from the original HOPE cohort for whom plasma was originally archived. These patients represented a randomly selected consecutive series of patients from the entire HOPE cohort."}, "macrophages": {"tested_on": "macrophages", "experiment": "Cholesterol efflux from macrophage by serum from treated diabetic mice", "details": "for effect on cholesterol efflux activity: Hp 2-2 diabetic mice"}, "[5]": {"details": "DM patients only, Hp 2-2, listed as vitamin E"}, "[6]": {"details": "DM patients with the other haptoglobin phenotypes (Hp 1-1 and Hp 2-1)"}, "[7]": {"details": "all patients, Hp 1-1, supplementation vs placebo"}, "[8]": {"details": "all patients, Hp 2-1, supplementation vs placebo"}, "[9]": {"details": "all patients, Hp 2-2, supplementation vs placebo"}, "[10]": {"details": "entire sample, regardless of haptoglobin type"}, "[11]": {"details": "serum from diabetic Hp 1-1 mice treated orally 28 days (vitamin E 1 mg/kg/day; GPx mimetic 2 mg/kg/day)"}, "[12]": {"details": "serum from diabetic Hp 2-2 mice treated orally 28 days (vitamin E 1 mg/kg/day; GPx mimetic 2 mg/kg/day)"}}, "note": "Marks after values point to notes of the source that are not given here."}
{"molecule": "Cc1c(C)c2c(c(C)c1O)CC[C@@](C)(CCC[C@H](C)CCC[C@H](C)CCCC(C)C)O2", "note": "[RRR-alpha-tocopherol]", "values": [{"measurement": "specific activity", "setting": "[1]", "result": 1.49, "unit": "IU per milligram"}]}
{"molecule": "CC(=O)Oc1c(C)c(C)c2c(c1C)CC[C@@](C)(CCC[C@H](C)CCC[C@H](C)CCCC(C)C)O2", "note": "[RRR-.alpha-tocopherol acetate]", "values": [{"measurement": "specific activity", "setting": "[1]", "result": 1.36, "unit": "IU per milligram"}]}
{"molecule": "O=C1O[C@H]([C@@H](O)CO)C(O)=C1O", "note": "[Vitamin C]", "values": [{"measurement": "correlation between CVD outcomes and supplementation", "setting": "[2]", "result": "no correlation"}]}
{"molecule": "CC(=O)Oc1c(C)c(C)c2c(c1C)CCC(C)(CCCC(C)CCCC(C)CCCC(C)C)O2", "note": "(racemic) [all-rac-α-tocopherol acetate]", "values": [{"measurement": "specific activity", "setting": "[1]", "result": 1.00, "unit": "IU per milligram"}]}
{"molecule": "CC(=O)Oc1c(C)c(C)c2c(c1C)CC[C@@](C)(CCC[C@H](C)CCC[C@H](C)CCCC(C)C)O2", "note": "[Vitamin E]", "values": [{"measurement": "clinical benefit on cardiovascular (CV) outcomes", "setting": "[3]", "result": "failed to demonstrate any clinical benefit"}, {"measurement": "Relative Risk Ratio, CV death (95% CI)", "setting": "[4]; DM patients only, Hp 1-1", "result": 0.64}, {"measurement": "Relative Risk Ratio, MI (95% CI)", "setting": "[4]; DM patients only, Hp 1-1", "result": 0.83}, {"measurement": "Relative Risk Ratio, Primary (non-fatal MI, stroke or cardiovascular death) (95% CI)", "setting": "[4]; DM patients only, Hp 1-1", "result": 0.84}, {"measurement": "Relative Risk Ratio, Stroke (95% CI)", "setting": "[4]; DM patients only, Hp 1-1", "result": 2.24}, {"measurement": "Relative Risk Ratio, CV death (95% CI)", "setting": "[4]; DM patients only, Hp 2-1", "result": "1.0(0.53-1.93)"}, {"measurement": "Relative Risk Ratio, MI (95% CI)", "setting": "[4]; DM patients only, Hp 2-1", "result": 0.99}, {"measurement": "Relative Risk Ratio, Primary (non-fatal MI, stroke or cardiovascular death) (95% CI)", "setting": "[4]; DM patients only, Hp 2-1", "result": 1.08}, {"measurement": "Relative Risk Ratio, Stroke (95% CI)", "setting": "[4]; DM patients only, Hp 2-1", "result": "0.99(0.45-2.18)"}, {"measurement": "Relative Risk Ratio, CV death (95% CI)", "setting": "[4]; DM patients only, Hp 2-2", "result": "0.45 (0.23-0.90) *"}, {"measurement": "Relative Risk Ratio, MI (95% CI)", "setting": "[4]; DM patients only, Hp 2-2", "result": 0.57}, {"measurement": "Relative Risk Ratio, Primary (non-fatal MI, stroke or cardiovascular death) (95% CI)", "setting": "[4]; DM patients only, Hp 2-2", "result": "0.70(0.45-1.10)"}, {"measurement": "Relative Risk Ratio, Stroke (95% CI)", "setting": "[4]; DM patients only, Hp 2-2", "result": 1.15}, {"measurement": "Relative Risk Ratio, CV death (95% CI)", "setting": "[4]; [5]", "result": 0.45}, {"measurement": "Relative Risk Ratio, MI (95% CI)", "setting": "[4]; [5]", "result": 0.57}, {"measurement": "benefit for any of the primary CV outcomes", "setting": "[4]; [6]", "result": "no significant benefit"}, {"measurement": "Relative Risk Ratio, CV death (95% CI)", "setting": "[4]; all patients, Hp 1-1", "result": 1.10}, {"measurement": "Relative Risk Ratio, MI (95% CI)", "setting": "[4]; all patients, Hp 1-1", "result": 0.79}, {"measurement": "Relative Risk Ratio, Stroke (95% CI)", "setting": "[4]; all patients, Hp 1-1", "result": 1.50}, {"measurement": "Relative Risk Ratio, Primary (non-fatal MI, stroke or cardiovascular death) (95% CI)", "setting": "[4]; [7]", "result": "0.97(0.63-1.50)"}, {"measurement": "Relative Risk Ratio, CV death (95% CI)", "setting": "[4]; all patients, Hp 2-1", "result": "1.07(0.69-1.64)"}, {"measurement": "Relative Risk Ratio, MI (95% CI)", "setting": "[4]; all patients, Hp 2-1", "result": "1.02(0.75-1.38)"}, {"measurement": "Relative Risk Ratio, Stroke (95% CI)", "setting": "[4]; all patients, Hp 2-1", "result": "0.92(0.53-1.60)"}, {"measurement": "Relative Risk Ratio, Primary (non-fatal MI, stroke or cardiovascular death) (95% CI)", "setting": "[4]; [8]", "result": "0.96(0.74-1.25)"}, {"measurement": "Relative Risk Ratio, CV death (95% CI)", "setting": "[4]; all patients, Hp 2-2", "result": 0.75}, {"measurement": "Relative Risk Ratio, MI (95% CI)", "setting": "[4]; all patients, Hp 2-2", "result": "0.94(0.68-1.30)"}, {"measurement": "Relative Risk Ratio, Stroke (95% CI)", "setting": "[4]; all patients, Hp 2-2", "result": 0.85}, {"measurement": "Relative Risk Ratio, Primary (non-fatal MI, stroke or cardiovascular death) (95% CI)", "setting": "[4]; [9]", "result": 0.92}, {"measurement": "benefit for any of the primary CV outcomes", "setting": "[4]; [10]", "result": "no significant benefit"}, {"measurement": "benefit of supplementation", "setting": "[4]", "result": "no significant benefit"}, {"measurement": "effect on cholesterol efflux activity", "setting": "macrophages", "result": "increased"}, {"measurement": "Tritiated cholesterol efflux from macrophages", "setting": "macrophages; [11]", "result": "16.1 +/− 0.5 % per hour"}, {"measurement": "Tritiated cholesterol efflux from macrophages", "setting": "macrophages; [12]", "result": "15.3 +/− 0.7 % per hour"}]}
{"molecule": "CCOC(=O)[C@H](CCc1ccccc1)N[C@@H](C)C(=O)N1[C@H](C(=O)O)C[C@@H]2CCC[C@@H]21", "note": "[Ramipril, ramipril]", "values": [{"measurement": "Relative Risk Ratio, Primary (non-fatal MI, stroke or cardiovascular death) (95% CI)", "setting": "[4]; DM patients only, Hp 1-1", "result": "0.78(0.35-1.75)"}, {"measurement": "Relative Risk Ratio, Primary (non-fatal MI, stroke or cardiovascular death) (95% CI)", "setting": "[4]; DM patients only, Hp 2-1", "result": 0.97}, {"measurement": "Relative Risk Ratio, Primary (non-fatal MI, stroke or cardiovascular death) (95% CI)", "setting": "[4]; DM patients only, Hp 2-2", "result": 0.57}, {"measurement": "Relative Risk Ratio, Primary (non-fatal MI, stroke or cardiovascular death) (95% CI)", "setting": "[4]; DM patients only, Hp 2-2, listed as ramipril", "result": 0.57}, {"measurement": "benefit for any of the primary CV outcomes", "setting": "[4]; [6]", "result": "no benefit"}, {"measurement": "Relative Risk Ratio, Primary (non-fatal MI, stroke or cardiovascular death) (95% CI)", "setting": "[4]; [7]", "result": "0.74(0.47-1.17)"}, {"measurement": "Relative Risk Ratio, Primary (non-fatal MI, stroke or cardiovascular death) (95% CI)", "setting": "[4]; [8]", "result": "0.81 (0.62-1.07)"}, {"measurement": "Relative Risk Ratio, Primary (non-fatal MI, stroke or cardiovascular death) (95% CI)", "setting": "[4]; [9]", "result": 0.76}, {"measurement": "composite endpoint (non-fatal MI, stroke or cardiovascular death)", "setting": "[4]; diabetic individuals in the HOPE study having a Hp 2-2 phenotype", "result": "statistically significant reduction"}, {"measurement": "benefit for any of the primary CV outcomes", "setting": "[4]; [10]", "result": "no significant benefit"}, {"measurement": "benefit of supplementation", "setting": "[4]", "result": "no significant benefit"}]}
{"molecule": "Cc1c(C)c2c(c(C)c1O)CCC(C)(CCCC(C)CCCC(C)CCCC(C)C)O2", "note": "(racemic) [all-rac-.alpha-tocopherol]", "values": [{"measurement": "specific activity", "setting": "[1]", "result": 1.10, "unit": "IU per milligram"}]}
{"molecule": "CC1(C)CN[Se]c2ccccc21", "note": "[GPx mimetic]", "values": [{"measurement": "effect on cholesterol efflux activity", "setting": "macrophages", "result": "increased"}, {"measurement": "Tritiated cholesterol efflux from macrophages", "setting": "macrophages; [11]", "result": "14.6 +/− 0.4 % per hour"}, {"measurement": "Tritiated cholesterol efflux from macrophages", "setting": "macrophages; [12]", "result": "14.0 +/− 0.5 % per hour"}]}
